Consider 28 compounds from patent US9067943B2, “[1,2,3]triazolo[4,5-D]pyrimidine derivatives” (priority 2011, dated 2015).

Read-outs that look alike come from different tables or passages of the source.

One experiment deals with T1, human CB1 receptors (Homo sapiens, UniProt P21554).
T1 construct: expressed in transfected cells; host or cells: CHO cells
The experiment is described as follows: cAMP assay. The class given is cell-based. The gist of the method: (§1)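 CHO cells expressing human CB1 or CB2 were preincubated 30 min at 30 °C in Krebs Ringer bicarbonate buffer with 1 mM IBMX, then exposed to compounds for 30 min at 30 °C. cAMP was measured by time-resolved FRET against a cAMP standard curve, and EC50 values were derived.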
(In general: Changes in cAMP serve as a functional read-out for many G protein-coupled receptors.)

Another experiment addresses T2, human CB2 receptors (Homo sapiens, UniProt P34972).
T2 construct: expressed in transfected cells; host or cells: CHO cells
Put plainly: cAMP assay. The format is cell-based. The gist of the method: as §1

Where [1] appears, read: functional cAMP assay, CHO cells expressing human CB2, read-out: human CB2 EC50.

T1 sequence (P21554 whole entry): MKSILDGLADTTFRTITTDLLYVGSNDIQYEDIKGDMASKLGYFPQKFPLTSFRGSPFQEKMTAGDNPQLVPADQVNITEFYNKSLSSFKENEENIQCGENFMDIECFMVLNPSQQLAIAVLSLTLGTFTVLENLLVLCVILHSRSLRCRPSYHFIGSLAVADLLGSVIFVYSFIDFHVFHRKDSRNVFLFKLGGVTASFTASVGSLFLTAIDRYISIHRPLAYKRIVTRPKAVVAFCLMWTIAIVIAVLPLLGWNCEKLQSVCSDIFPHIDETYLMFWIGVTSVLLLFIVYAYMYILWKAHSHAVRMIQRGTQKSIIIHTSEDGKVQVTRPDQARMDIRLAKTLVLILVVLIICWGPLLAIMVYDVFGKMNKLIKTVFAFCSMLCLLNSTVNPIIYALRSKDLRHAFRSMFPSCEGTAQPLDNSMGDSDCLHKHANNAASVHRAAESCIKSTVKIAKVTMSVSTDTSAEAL
T2 sequence (P34972 whole entry): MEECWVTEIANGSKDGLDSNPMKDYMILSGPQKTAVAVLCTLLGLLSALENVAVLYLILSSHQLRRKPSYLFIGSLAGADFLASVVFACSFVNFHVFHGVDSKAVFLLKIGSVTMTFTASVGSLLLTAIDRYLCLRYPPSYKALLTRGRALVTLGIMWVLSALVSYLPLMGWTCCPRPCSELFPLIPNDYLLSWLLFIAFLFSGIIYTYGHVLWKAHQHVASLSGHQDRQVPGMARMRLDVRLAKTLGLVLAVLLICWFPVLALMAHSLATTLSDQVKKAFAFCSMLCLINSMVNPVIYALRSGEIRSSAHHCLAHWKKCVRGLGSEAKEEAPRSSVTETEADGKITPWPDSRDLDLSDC

Regarding `Cc1noc(Cn2nc3nc(C(C)(C)C)nc(N4CC[C@@](C)(O)C4)c3n2)n1` [Example 129-b, (R)-1-[5-tert-Butyl-2-(3-methyl-[1,2,4]oxadiazol-5-ylmethyl)-2H-[1,2,3]triazolo[4,5-d]pyrimidin-7-yl]-3-methyl-pyrrolidin-3-ol], the EC50 (in general, the midpoint of the concentration-response curve) was > 10 µM on human CB1 receptors and 0.316 µM at human CB2 receptors (setting [1]).
On the same counts, the results for `Cc1noc(Cn2nc3nc(C(C)(C)C)nc(N4CC[C@](C)(O)C4)c3n2)n1` [Example 129-a, (S)-1-[5-tert-Butyl-2-(3-methyl-[1,2,4]oxadiazol-5-ylmethyl)-2H-[1,2,3]triazolo[4,5-d]pyrimidin-7-yl]-3-methyl-pyrrolidin-3-ol] are > 10 µM and 0.197 µM.
Consider `CC(C)(C)c1nc(N2CCC(F)(F)C2)c2nn(Cc3ccc(Cl)cc3)nc2n1` [Example 8, 5-tert-Butyl-2-(4-chloro-benzyl)-7-(3,3-difluoro-pyrrolidin-1-yl)-2H-[1,2,3]triazolo[4,5-d]pyrimidine], for which the EC50 is > 10 µM on human CB1 receptors and 0.0065 µM on human CB2 receptors.
As to `CC(C)(C)c1nc(N2CC[C@H](O)C2)c2nn(Cc3ccccc3S(C)(=O)=O)nc2n1` [Example 80, (S)-1-[5-tert-Butyl-2-(2-methanesulfonyl-benzyl)-2H-[1,2,3]triazolo[4,5-d]pyrimidin-7-yl]-pyrrolidin-3-ol], the concentration for a half-maximal effect (EC50) is > 10 µM on human CB1 receptors and 0.0103 µM on human CB2 receptors.
Take `CC(C)(C)c1nc(N2CCC(F)(F)C2)c2nn(CC(=O)c3ccc(Cl)cc3)nc2n1` [Example 53, 2-[5-tert-Butyl-7-(3,3-difluoro-pyrrolidin-1-yl)-[1,2,3]triazolo[4,5-d]pyrimidin-2-yl]-1-(4-chloro-phenyl)-ethanone]: the EC50 was > 10 µM at human CB1 receptors and 0.0072 µM at human CB2 receptors.
On the same counts, the results for `CC(C)(C)c1nc(N2CCC(F)(F)C2)c2nn(Cc3cccnc3)nc2n1` [Example 16, 5-tert-Butyl-7-(3,3-difluoro-pyrrolidin-1-yl)-2-pyridin-3-ylmethyl-2H-[1,2,3]triazolo[4,5-d]pyrimidine] are > 10 µM and 0.0039 µM.
On the same counts, the results for `C[C@H](Oc1nc(N2CCC(F)(F)C2)c2nn(Cc3ccccc3C(F)(F)F)nc2n1)C(F)(F)F` [Example 115, 7-(3,3-Difluoro-pyrrolidin-1-yl)-2-(2-trifluoromethyl-benzyl)-5-((S)-2,2,2-trifluoro-1-methyl-ethoxy)-2H-[1,2,3]triazolo[4,5-d]pyrimidine] are > 10 µM and 0.0312 µM.
On the same counts, the results for `Cc1noc(Cn2nc3nc(C(C)(C)C)nc(N4CC[C@H](O)C4)c3n2)n1` [Example 74, (S)-1-[5-tert-Butyl-2-(3-methyl-[1,2,4]oxadiazol-5-ylmethyl)-2H-[1,2,3]triazolo[4,5-d]pyrimidin-7-yl]-pyrrolidin-3-ol] are > 10 µM and 0.0613 µM.
On to `CC(C)(C)c1nc(N2CCC(F)(F)C2)c2nn(Cc3cc(F)c(F)cc3Cl)nc2n1` [Example 19, 5-tert-Butyl-2-(2-chloro-4,5-difluoro-benzyl)-7-(3,3-difluoro-pyrrolidin-1-yl)-2H-[1,2,3]triazolo[4,5-d]pyrimidine], for which the figures for the EC50 on human CB1 receptors and at human CB2 receptors were > 10 µM and 0.0022 µM, respectively.
For the compound `CC(C)(C)c1nc(N2CC[C@@](C)(O)C2)c2nn(Cc3ncccc3Cl)nc2n1` [Example 127-b, (R)-1-[5-tert-Butyl-2-(3-chloro-pyridin-2-ylmethyl)-2H-[1,2,3]triazolo[4,5-d]pyrimidin-7-yl]-3-methyl-pyrrolidin-3-ol], the 50% effective concentration (EC50) was determined as 0.609 µM at human CB1 receptors and 0.0119 µM at human CB2 receptors.
For the compound `CC(C)(C)c1nc(N2CC[C@@](C)(O)C2)c2nn(Cc3ccccc3C(F)(F)F)nc2n1` [Example 125-b, (R)-1-[5-tert-Butyl-2-(2-trifluoromethyl-benzyl)-2H-[1,2,3]triazolo[4,5-d]pyrimidin-7-yl]-3-methyl-pyrrolidin-3-ol], the EC50 at human CB1 receptors is > 10 µM; at human CB2 receptors it was 0.0037 µM.
On the same counts, the results for `CC(C)(C)c1nc(N2CCC(F)(F)C2)c2nn(CCc3ccc(Cl)cc3)nc2n1` [Example 43, 5-tert-Butyl-2-[2-(4-chloro-phenyl)-ethyl]-7-(3,3-difluoro-pyrrolidin-1-yl)-2H-[1,2,3]triazolo[4,5-d]pyrimidine] are > 10 µM and 0.022 µM.
On the same counts, the results for `C[C@@H](c1ccccc1Cl)n1nc2nc(C(C)(C)C)nc(N3CCC(F)(F)C3)c2n1` [Example 29, 5-tert-Butyl-2-[(S)-1-(2-chloro-phenyl)-ethyl]-7-(3,3-difluoro-pyrrolidin-1-yl)-2H-[1,2,3]triazolo[4,5-d]pyrimidine] are 0.098 µM and 0.0008 µM.
On the same counts, the results for `CC(C)(C)c1nc(N2CC[C@](C)(O)C2)c2nn(Cc3ncccc3Cl)nc2n1` [Example 127-a, (S)-1-[5-tert-Butyl-2-(3-chloro-pyridin-2-ylmethyl)-2H-[1,2,3]triazolo[4,5-d]pyrimidin-7-yl]-3-methyl-pyrrolidin-3-ol] are 0.757 µM and 0.0051 µM.
As to `CC(C)(C)c1nc(N2CCC(F)(F)C2)c2nn(Cc3ccncc3Cl)nc2n1` [Example 66, 5-tert-Butyl-2-(3-chloro-pyridin-4-ylmethyl)-7-(3,3-difluoro-pyrrolidin-1-yl)-2H-[1,2,3]triazolo[4,5-d]pyrimidine], the EC50 stood at 0.234 µM on human CB1 receptors and 0.0004 µM at human CB2 receptors.
For the compound `CCn1nc2nc(C(C)(C)C)nc(N3CCC(F)(F)C3)c2n1` [Example 3, 5-tert-Butyl-7-(3,3-difluoro-pyrrolidin-1-yl)-2-ethyl-2H-[1,2,3]triazolo[4,5-d]pyrimidine], the values for the EC50 on human CB1 receptors and on human CB2 receptors were > 10 µM and 0.0185 µM, respectively.
On the same counts, the results for `Cc1noc(Cn2nc3nc(C(C)(C)C)nc(N4CCC(F)(F)C4)c3n2)n1` [Example 40, 5-tert-Butyl-7-(3,3-difluoro-pyrrolidin-1-yl)-2-(3-methyl-[1,2,4]oxadiazol-5-ylmethyl)-2H-[1,2,3]triazolo[4,5-d]pyrimidine] are > 10 µM and 0.0043 µM.
On the same counts, the results for `CC(C)(C)c1nc(N2CCC(F)(F)C2)c2nn(CC(F)(F)F)nc2n1` [Example 18, 5-tert-Butyl-7-(3,3-difluoro-pyrrolidin-1-yl)-2-(2,2,2-trifluoro-ethyl)-2H-[1,2,3]triazolo[4,5-d]pyrimidine] are > 10 µM and 0.0014 µM.
Turning to `CC(C)(C)c1nc(N2CCC(F)(F)C2)c2nn(Cc3ncccc3Cl)nc2n1` [Example 36, 5-tert-Butyl-2-(3-chloro-pyridin-2-ylmethyl)-7-(3,3-difluoro-pyrrolidin-1-yl)-2H-[1,2,3]triazolo[4,5-d]pyrimidine], the EC50 is 0.0203 µM on human CB1 receptors and 0.0002 µM at human CB2 receptors.
On the same counts, the results for `Cc1nc(Cn2nc3nc(C(C)(C)C)nc(N4CC[C@H](O)C4)c3n2)no1` [Example 86, (S)-1-[5-tert-Butyl-2-(5-methyl-[1,2,4]oxadiazol-3-ylmethyl)-2H-[1,2,3]triazolo[4,5-d]pyrimidin-7-yl]-pyrrolidin-3-ol] are > 10 µM and 0.0522 µM.
On the same counts, the results for `CC(C)(C)c1nc(N2CC[C@H](O)C2)c2nn(Cc3nc(Cl)ccc3Cl)nc2n1` [Example 76, (S)-1-[5-tert-Butyl-2-(3,6-dichloro-pyridin-2-ylmethyl)-2H-[1,2,3]triazolo[4,5-d]pyrimidin-7-yl]-pyrrolidin-3-ol] are > 10 µM and 0.0059 µM.
On the same counts, the results for `Cc1nnc(Cn2nc3nc(C(C)(C)C)nc(N4CC(F)(F)C(F)(F)C4)c3n2)n1C` [Example 103, 5-tert-Butyl-2-(4,5-dimethyl-4H-[1,2,4]triazol-3-ylmethyl)-7-(3,3,4,4-tetrafluoro-pyrrolidin-1-yl)-2H-[1,2,3]triazolo[4,5-d]pyrimidine] are > 10 µM and 0.0209 µM.
As to `CC(C)(C)Nc1nc(N2CCC(F)(F)C2)c2nn(Cc3ccccc3S(C)(=O)=O)nc2n1` [Example 137, tert-Butyl-[7-(3,3-difluoro-pyrrolidin-1-yl)-2-(2-methanesulfonyl-benzyl)-2H-[1,2,3]triazolo[4,5-d]pyrimidin-5-yl]-amine], the EC50 is > 10 µM at human CB1 receptors and 0.0053 µM at human CB2 receptors.
On the same counts, the results for `CC(C)(C)c1nc(N2CCC(F)(F)C2)c2nn(Cc3ccncc3)nc2n1` [Example 17, 5-tert-Butyl-7-(3,3-difluoro-pyrrolidin-1-yl)-2-pyridin-4-ylmethyl-2H-[1,2,3]triazolo[4,5-d]pyrimidine] are > 10 µM and 0.0008 µM.
On the same counts, the results for `CC(C)(C)c1nc(N2CCC(F)(F)C2)c2nn(Cc3c(Cl)ccnc3Cl)nc2n1` [Example 44, 5-tert-Butyl-2-(2,4-dichloro-pyridin-3-ylmethyl)-7-(3,3-difluoro-pyrrolidin-1-yl)-2H-[1,2,3]triazolo[4,5-d]pyrimidine] are 0.454 µM and 0.0002 µM.
Turning to `Cc1nc(Cn2nc3nc(C(C)(C)C)nc(N4CC[C@H](O)C4)c3n2)n(C)n1` [Example 95, (S)-1-[5-tert-Butyl-2-(2,5-dimethyl-2H-[1,2,4]triazol-3-ylmethyl)-2H-[1,2,3]triazolo[4,5-d]pyrimidin-7-yl]-pyrrolidin-3-ol], the values for the EC50 at human CB1 receptors and on human CB2 receptors (setting [1]) were > 10 µM and 0.257 µM, respectively.
For `CC(C)(C)c1nc(N2CCC(F)(F)C2)c2nn(CC(=O)c3cccc(Cl)c3)nc2n1` [Example 52, 2-[5-tert-Butyl-7-(3,3-difluoro-pyrrolidin-1-yl)-[1,2,3]triazolo[4,5-d]pyrimidin-2-yl]-1-(3-chloro-phenyl)-ethanone], the EC50 at human CB1 receptors is > 10 µM; at human CB2 receptors, 0.013 µM.
On to `CC(C)(C)c1nc(N2CCC(F)(F)C2)c2nn([C@@H]3CCOC3)nc2n1` [Example 45, 5-tert-Butyl-7-(3,3-difluoro-pyrrolidin-1-yl)-2-(R)-tetrahydro-furan-3-yl-2H-[1,2,3]triazolo[4,5-d]pyrimidine], for which the EC50 on human CB1 receptors is > 10 µM; on human CB2 receptors, 0.0076 µM.
